Measured values: patent US11306078B2, “Piperidine CXCR7 receptor modulators” (IDORSIA PHARMACEUTICALS LTD., priority 2016, dated 2022)

Biological target: human chemokine receptor CXCR7 (Homo sapiens (Human), UniProt P25106)
Assay: Tango CXCR7-bla U2OS beta-arrestin recruitment assay (beta-lactamase reporter, FRET), antagonism of CXCL12/SDF1-α;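 further: compounds preincubated 15 min before CXCL12 addition, then 22 h at 37 °C, FRET emission ratio read with CCF4-AM substrate after 2 h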
Type: cell-based
Settings: antagonistic effect on CXCR7; Tango CXCR7-bla U2OS cells, CXCL12/SDF1-α at its EC80

human chemokine receptor CXCR7, sequence (P25106 whole entry): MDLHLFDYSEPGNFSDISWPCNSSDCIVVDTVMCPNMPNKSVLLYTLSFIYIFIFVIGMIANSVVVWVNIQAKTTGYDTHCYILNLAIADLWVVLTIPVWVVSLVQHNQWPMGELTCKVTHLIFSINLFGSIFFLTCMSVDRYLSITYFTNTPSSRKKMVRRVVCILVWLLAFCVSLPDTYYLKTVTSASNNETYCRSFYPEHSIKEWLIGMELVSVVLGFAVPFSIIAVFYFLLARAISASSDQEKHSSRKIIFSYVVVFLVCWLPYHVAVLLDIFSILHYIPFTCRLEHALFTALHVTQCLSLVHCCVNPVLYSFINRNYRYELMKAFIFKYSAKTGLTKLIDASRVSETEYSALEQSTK

Compound	IC50
O=C(N[C@@H]1CCN(CC2CC2)C[C@H]1C(=O)NC1(c2ccccn2)CC1)c1cc(-c2ccc(F)cc2F)no1 (racemic) [Example 1.174, rac-(3R*,4R*)-1-Cyclopropylmethyl-4-{[3-(2,4-difluoro-phenyl)-isoxazole-5-carbonyl]-amino}-piperidine-3-carboxylic acid (1-pyridin-2-yl-cyclopropyl)-amide]	36 nM
O=C(N[C@@H]1CCN(C2CCCC2)C[C@H]1C(=O)NC1(c2ncccn2)CC1)c1cc(-c2c(F)cc(F)cc2F)on1 (racemic) [Example 1.176, rac-(3R*,4R*)-1-Cyclopentyl-4-{[5-(2,4,6-trifluoro-phenyl)-isoxazole-3-carbonyl]-amino}-piperidine-3-carboxylic acid (1-pyrimidin-2-yl-cyclopropyl)-amide]	6 nM
O=C(N[C@@H]1CCN(CC2CC2)C[C@H]1C(=O)NC1(c2ncccn2)CC1)c1cc(-c2c(F)cc(F)cc2F)on1 (racemic) [Example 1.177, rac-(3R*,4R*)-1-Cyclopropylmethyl-4-{[5-(2,4,6-trifluoro-phenyl)-isoxazole-3-carbonyl]-amino}-piperidine-3-carboxylic acid (1-pyrimidin-2-yl-cyclopropyl)-amide]	5 nM
CC(C)(C#N)NC(=O)[C@@H]1CN(C2CCCCC2)CC[C@H]1NC(=O)c1cc(-c2ccc(F)cc2F)on1 (racemic) [Example 1.183, rac-(3R*,4R*)-1-Cyclohexyl-4-{[5-(2,4-difluoro-phenyl)-isoxazole-3-carbonyl]-amino}-piperidine-3-carboxylic acid (cyano-dimethyl-methyl)-amide]	79 nM
O=C(N[C@@H]1CCN(CC2CC2)C[C@H]1C(=O)NC1(c2ncccn2)CC1)c1cc(-c2ccc(Cl)cc2Cl)on1 (racemic) [Example 1.189, rac-(3R*,4R*)-1-Cyclopropylmethyl-4-{[5-(2,4-dichloro-phenyl)-isoxazole-3-carbonyl]-amino}-piperidine-3-carboxylic acid (1-pyrimidin-2-yl-cyclopropyl)-amide]	36 nM
O=C(N[C@@H]1CCN(CC2CC2)C[C@H]1C(=O)NC1(c2ncccn2)CC1)c1cc(-c2c(F)cccc2F)on1 (racemic) [Example 1.191, rac-(3R*,4R*)-1-Cyclopropylmethyl-4-{[5-(2,6-difluoro-phenyl)-isoxazole-3-carbonyl]-amino}-piperidine-3-carboxylic acid (1-pyrimidin-2-yl-cyclopropyl)-amide]	186 nM
O=C(N[C@@H]1CCN(CC2CC2)C[C@H]1C(=O)NC1(c2ncccn2)CC1)c1cc(-c2ccc(C(F)(F)F)cc2)on1 (racemic) [Example 1.192, rac-(3R*,4R*)-1-Cyclopropylmethyl-4-{[5-(4-trifluoromethyl-phenyl)-isoxazole-3-carbonyl]-amino}-piperidine-3-carboxylic acid (1-pyrimidin-2-yl-cyclopropyl)-amide]	389 nM
O=C(N[C@@H]1CCN(CC2CC2)C[C@H]1C(=O)NC1(c2ncccn2)CC1)c1cc(-c2cccc(C(F)(F)F)c2)on1 (racemic) [Example 1.193, rac-(3R*,4R*)-1-Cyclopropylmethyl-4-{[5-(3-trifluoromethyl-phenyl)-isoxazole-3-carbonyl]-amino}-piperidine-3-carboxylic acid (1-pyrimidin-2-yl-cyclopropyl)-amide]	191 nM
COc1ccc(-c2cc(C(=O)N[C@@H]3CCN(CC4CC4)C[C@H]3C(=O)NC3(c4ncccn4)CC3)no2)c(F)c1 (racemic) [Example 1.195, rac-(3R*,4R*)-1-Cyclopropylmethyl-4-{[5-(2-fluoro-4-methoxy-phenyl)-isoxazole-3-carbonyl]-amino}-piperidine-3-carboxylic acid (1-pyrimidin-2-yl-cyclopropyl)-amide]	759 nM
O=C(N[C@@H]1CCN(CC2CC2)C[C@H]1C(=O)NC1(c2ncccn2)CC1)c1cc(-c2ccc(F)cn2)on1 (racemic) [Example 1.196, rac-(3R*,4R*)-1-Cyclopropylmethyl-4-{[5-(5-fluoro-pyridin-2-yl)-isoxazole-3-carbonyl]-amino}-piperidine-3-carboxylic acid (1-pyrimidin-2-yl-cyclopropyl)-amide]	575 nM
O=C(N[C@@H]1CCN(CC2CC2)C[C@H]1C(=O)NC1(c2ccccn2)CCC1)c1cc(-c2ccc(F)cc2F)on1 (racemic) [Example 1.197, rac-(3R*,4R*)-1-Cyclopropylmethyl-4-{[5-(2,4-difluoro-phenyl)-isoxazole-3-carbonyl]-amino}-piperidine-3-carboxylic acid (1-pyridin-2-yl-cyclobutyl)-amide]	11 nM
COc1ccccc1C1(NC(=O)[C@@H]2CN(CC3CC3)CC[C@H]2NC(=O)c2cc(-c3ccc(F)cc3F)on2)CC1 (racemic) [Example 1.198, rac-(3R*,4R*)-1-Cyclopropylmethyl-4-{[5-(2,4-difluoro-phenyl)-isoxazole-3-carbonyl]-amino}-piperidine-3-carboxylic acid [1-(2-methoxy-phenyl)-cyclopropyl]-amide]	52 nM
O=C(N[C@@H]1CCN(CC2CC2)C[C@H]1C(=O)NC1(c2ncccn2)CC1)c1cc(-c2cccc(F)c2F)on1 (racemic) [Example 1.199, rac-(3R*,4R*)-1-Cyclopropylmethyl-4-{[5-(2,3-difluoro-phenyl)-isoxazole-3-carbonyl]-amino}-piperidine-3-carboxylic acid (1-pyrimidin-2-yl-cyclopropyl)-amide]	273 nM
CC(C)N1CC[C@@H](NC(=O)c2cc(-c3ccc(F)cc3F)on2)[C@H](C(=O)N(C)C)C1 (racemic) [Example 2.001, rac-(3R*,4R*)-4-{[5-(2,4-Difluoro-phenyl)-isoxazole-3-carbonyl]-amino}-1-isopropyl-piperidine-3-carboxylic Acid Dimethylamide]	209 nM
CN(C)C(=O)[C@@H]1CN(C2CCCCC2)CC[C@H]1NC(=O)c1noc(-c2ccc(F)cc2F)n1 (racemic) [Example 3.007, rac-(3R*,4R*)-1-Cyclohexyl-4-{[5-(2-difluoro-phenyl)-[1,2,4]oxadiazole-3-carbonyl]-amino}-piperidine-3-carboxylic acid dimethylamide]	162 nM

The next lines start with the values.

IC50	Compound
965 nM	CN(C)C(=O)[C@@H]1CN(C2CCCCC2)CC[C@H]1NC(=O)c1cc(-c2c(F)cccc2F)on1 (racemic) [Example 3.001, rac-(3R*,4R*)-1-Cyclohexyl-4-{[5-(2,6-difluoro-phenyl)-isoxazole-3-carbonyl]-amino}-piperidine-3-carboxylic acid dimethylamide]
435 nM	CN(C)C(=O)[C@@H]1CN(C2CCCCC2)CC[C@H]1NC(=O)c1cc(-c2ccc(F)cc2)on1 (racemic) [Example 3.002, rac-(3R*,4R*)-1-Cyclohexyl-4-{[5-(4-fluoro-phenyl)-isoxazole-3-carbonyl]-amino}-piperidine-3-carboxylic acid dimethylamide]
105 nM	CN(C)C(=O)[C@@H]1CN(C2CCCCC2)CC[C@H]1NC(=O)c1nnc(-c2ccc(F)cc2F)o1 (racemic) [Example 3.003, rac-(3R*,4R*)-1-Cyclohexyl-4-{[5-(2,4-difluoro-phenyl)-[1,3,4]oxadiazole-2-carbonyl]-amino}-piperidine-3-carboxylic acid dimethylamide]
338 nM	CN(C)C(=O)[C@@H]1CN(C2CCCCC2)CC[C@H]1NC(=O)c1cc(-c2ccc(F)cc2Cl)on1 (racemic) [Example 3.004, rac-(3R*,4R*)-4-{[5-(2-Chloro-4-fluoro-phenyl)-isoxazole-3-carbonyl]-amino}-1-cyclohexyl-piperidine-3-carboxylic acid dimethylamide]
38 nM	CN(C)C(=O)[C@@H]1CN(C2CCCCC2)CC[C@H]1NC(=O)c1cc(-c2c(F)cc(F)cc2F)on1 (racemic) [Example 3.005, rac-(3R*,4R*)-1-Cyclohexyl-4-{[5-(2,4,6-trifluoro-phenyl)-isoxazole-3-carbonyl]-amino}-piperidine-3-carboxylic acid dimethylamide]
108 nM	CN(C)C(=O)[C@@H]1CN(C2CCCCC2)CC[C@H]1NC(=O)c1cc(-c2ccc(Cl)cc2F)on1 (racemic) [Example 3.006, rac-(3R*,4R*)-4-{[5-(4-Chloro-2-fluoro-phenyl)-isoxazole-3-carbonyl]-amino}-1-cyclohexyl-piperidine-3-carboxylic acid dimethylamide]
286 nM	O=C(N[C@@H]1CCN(C2CCCCC2)C[C@H]1C(=O)NC1(c2ccccn2)CC1)c1cc(-c2ccccc2F)on1 (racemic) [Example 3.009, rac-(3R*,4R*)-1-Cyclohexyl-4-{[5-(2-fluoro-phenyl)-isoxazole-3-carbonyl]amino}-piperidine-3-carboxylic acid (1-pyridin-2-yl-cyclopropyl)-amide]
26 nM	O=C(N[C@@H]1CCN(C2CCCCC2)C[C@H]1C(=O)NC1(c2ccccn2)CC1)c1nnc(-c2ccc(F)cc2F)o1 (racemic) [Example 3.012, rac-(3R*,4R*)-1-Cyclohexyl-4-{[5-(2,4-difluoro-phenyl)-[1,3,4]oxadiazole-2-carbonyl]-amino}-piperidine-3-carboxylic acid (1-pyridin-2-yl-cyclopropyl)-amide]
153 nM	O=C(N[C@@H]1CCN(CC2CC2)C[C@H]1C(=O)NC1(c2ccccn2)CC1)c1cc(-c2ccccc2F)on1 (racemic) [Example 3.013, rac-(3R*,4R*)-1-Cyclopropylmethyl-4-{[5-(2-fluoro-phenyl)-isoxazole-3-carbonyl]-amino}-piperidine-3-carboxylic acid (1-pyridin-2-yl-cyclopropyl)-amide]
158 nM	O=C(N[C@@H]1CCN(CC2CC2)C[C@H]1C(=O)NC1(c2ccccn2)CC1)c1cc(-c2ccc(F)cc2)on1 (racemic) [Example 3.014, rac-(3R*,4R*)-1-Cyclopropylmethyl-4-{[5-(4-fluoro-phenyl)-isoxazole-3-carbonyl]-amino}-piperidine-3-carboxylic acid (1-pyridin-2-yl-cyclopropyl)-amide]
